Organism: Rattus norvegicus
Assay: DrugMatrix - Regimen: Daily Repeat
Format: toxicity, organism-based, Sprague-Dawley
Design: regimen Daily Repeat, gender Male, age 6-8 weeks
Conditions: in vivo, vehicle 100 % SALINE; for ABSOLUTE BASOPHIL / ABSOLUTE EOSINOPHIL / ABSOLUTE LYMPHOCYTE / ABSOLUTE MONOCYTE / ABSOLUTE SEGMENTED NEUTROPHIL / BASOPHIL / EOSINOPHIL / ERYTHROCYTE COUNT / HEMATOCRIT / HEMOGLOBIN / LEUKOCYTE COUNT / LYMPHOCYTE / MEAN CORPUSCULAR HEMOGLOBIN / MEAN CORPUSCULAR HEMOGLOBIN CONCENTRATION / MEAN CORPUSCULAR VOLUME / MONOCYTE / NEUTROPHIL / NUCLEATED RED BLOOD CELLS / PLATELET COUNT: tissue Blood
[1] = iv, 0 mg/kg, 72 h, dose level Control, time 3 day
[2] = iv, 0 mg/kg, 72 h, tissue Plasma, dose level Control, time 3 day
[3] = iv, 0 mg/kg, 120 h, dose level Control, time 5 day
[4] = iv, 0 mg/kg, 120 h, tissue Plasma, dose level Control, time 5 day
[5] = iv, 6 mg/kg, 72 h, dose level Low, time 3 day
[6] = iv, 6 mg/kg, 72 h, tissue Plasma, dose level Low, time 3 day

CARBOPLATIN
TOTAL PROTEIN (ip, 5 mg/kg, […], tissue Plasma, route intraperitoneal, dose level High, time 28 day): 6.92 G/DL
ABSOLUTE BASOPHIL [1]: 0 CELLS/uL
ABSOLUTE EOSINOPHIL [1]: 0 CELLS/uL
ABSOLUTE LYMPHOCYTE [1]: 7026.17 CELLS/uL
ABSOLUTE MONOCYTE [1]: 44.33 CELLS/uL
ABSOLUTE SEGMENTED NEUTROPHIL [1]: 379.5 CELLS/uL
BASOPHIL [1]: 0%
EOSINOPHIL [1]: 0%
ERYTHROCYTE COUNT [1]: 5.49 x10E6/uL
HEMATOCRIT [1]: 33.67%
HEMOGLOBIN [1]: 13.17 G/DL
LEUKOCYTE COUNT [1]: 7.45 x10E3/uL
LYMPHOCYTE [1]: 94%
MEAN CORPUSCULAR HEMOGLOBIN [1]: 24.03 pg
MEAN CORPUSCULAR HEMOGLOBIN CONCENTRATION [1]: 39.15 G/DL
MEAN CORPUSCULAR VOLUME [1]: 61.4 fL
MONOCYTE [1]: 0.67%
NEUTROPHIL [1]: 5.33%
NUCLEATED RED BLOOD CELLS [1]: 0.17 /100WBC
PLATELET COUNT [1]: 1062.5 x10E3/uL
ALANINE AMINOTRANSFERASE [2]: 53.17 u/L
ALKALINE PHOSPHATASE [2]: 339.83 u/L
ASPARTATE AMINOTRANSFERASE [2]: 83.33 u/L
BLOOD UREA NITROGEN [2]: 16 mg/dL
CARBON DIOXIDE [2]: 32.5 mmol/L
CHLORIDE [2]: 98 MEQ/L
CHOLESTEROL [2]: 74.67 mg/dL
CREATINE PHOSPHOKINASE [2]: 284 u/L
CREATININE [2]: 0.2 mg/dL
GLUCOSE [2]: 128.67 mg/dL
LACTATE DEHYDROGENASE [2]: 110.33 u/L
LIPASE [2]: 9 u/L
PHOSPHORUS [2]: 11.73 mg/dL
POTASSIUM [2]: 6.34 MEQ/L
TOTAL BILIRUBIN [2]: 0.18 mg/dL
TOTAL PROTEIN [2]: 6.2 G/DL
URIC ACID [2]: 1.28 mg/dL
ABSOLUTE BASOPHIL [3]: 0 CELLS/uL
ABSOLUTE EOSINOPHIL [3]: 26.67 CELLS/uL
ABSOLUTE LYMPHOCYTE [3]: 8334.17 CELLS/uL
ABSOLUTE MONOCYTE [3]: 29.5 CELLS/uL
ABSOLUTE SEGMENTED NEUTROPHIL [3]: 593 CELLS/uL
BASOPHIL [3]: 0%
EOSINOPHIL [3]: 0.33%
ERYTHROCYTE COUNT [3]: 5.44 x10E6/uL
HEMATOCRIT [3]: 33.77%
HEMOGLOBIN [3]: 13.05 G/DL
LEUKOCYTE COUNT [3]: 8.98 x10E3/uL
LYMPHOCYTE [3]: 92.33%
MEAN CORPUSCULAR HEMOGLOBIN [3]: 24 pg
MEAN CORPUSCULAR HEMOGLOBIN CONCENTRATION [3]: 38.67 G/DL
MEAN CORPUSCULAR VOLUME [3]: 62.05 fL
MONOCYTE [3]: 0.33%
NEUTROPHIL [3]: 7%
NUCLEATED RED BLOOD CELLS [3]: 0 /100WBC
PLATELET COUNT [3]: 987 x10E3/uL
ALANINE AMINOTRANSFERASE [4]: 43.5 u/L
ALKALINE PHOSPHATASE [4]: 310.17 u/L
ASPARTATE AMINOTRANSFERASE [4]: 76.67 u/L
BLOOD UREA NITROGEN [4]: 17 mg/dL
CHLORIDE [4]: 100.33 MEQ/L
CHOLESTEROL [4]: 69.33 mg/dL
CREATINE PHOSPHOKINASE [4]: 218.67 u/L
CREATININE [4]: 0.22 mg/dL
GLUCOSE [4]: 155.17 mg/dL
PHOSPHORUS [4]: 11.2 mg/dL
POTASSIUM [4]: 5.5 MEQ/L
TOTAL BILIRUBIN [4]: 0.18 mg/dL
TOTAL PROTEIN [4]: 5.97 G/DL
URIC ACID [4]: 0.88 mg/dL
ABSOLUTE BASOPHIL [5]: 0 CELLS/uL
ABSOLUTE EOSINOPHIL [5]: 20.67 CELLS/uL
ABSOLUTE LYMPHOCYTE [5]: 6996.67 CELLS/uL
ABSOLUTE MONOCYTE [5]: 29.33 CELLS/uL
ABSOLUTE SEGMENTED NEUTROPHIL [5]: 353.33 CELLS/uL
BASOPHIL [5]: 0%
EOSINOPHIL [5]: 0.33%
ERYTHROCYTE COUNT [5]: 5.49 x10E6/uL
HEMATOCRIT [5]: 35.33%
HEMOGLOBIN [5]: 13.67 G/DL
LEUKOCYTE COUNT [5]: 7.4 x10E3/uL
LYMPHOCYTE [5]: 94.67%
MEAN CORPUSCULAR HEMOGLOBIN CONCENTRATION [5]: 38.67 G/DL
MONOCYTE [5]: 0.33%
NEUTROPHIL [5]: 4.67%
NUCLEATED RED BLOOD CELLS [5]: 0 /100WBC
PLATELET COUNT [5]: 803.67 x10E3/uL
ALANINE AMINOTRANSFERASE [6]: 44.67 u/L
ALBUMIN [6]: 4.3 G/DL
ALKALINE PHOSPHATASE [6]: 291.67 u/L
ASPARTATE AMINOTRANSFERASE [6]: 75.67 u/L
CARBON DIOXIDE [6]: 32 mmol/L
CHLORIDE [6]: 97.67 MEQ/L
CHOLESTEROL [6]: 72.33 mg/dL
CREATINE PHOSPHOKINASE [6]: 262.33 u/L
CREATININE [6]: 0.2 mg/dL
GLUCOSE [6]: 147.33 mg/dL
LACTATE DEHYDROGENASE [6]: 105 u/L
LIPASE [6]: 9 u/L
POTASSIUM [6]: 6.04 MEQ/L
TOTAL BILIRUBIN [6]: 0.17 mg/dL
